Results on 1 compound are retold here after ChEMBL document CHEMBL5380794, “Discovery of a Potent and Selective STAT5 PROTAC Degrader with Strong Antitumor Activity In Vivo in Acute Myeloid Leukemia” (J Med Chem, 2023).

One data set concerns the target Protein cereblon (Homo sapiens, UniProt Q96SW2). Briefly: Binding affinity to GST-tagged wild type human CRBN assessed as inhibition constant by TR-FRET assay. In general terms: TR-FRET usually uses a lanthanide donor and a delayed reading to cut background.
The test system of a further data set is SKNO-1. Briefly: Effect on STAT2 level in human SKNO-1 cells upto 5 uM measured for 18 hrs by Western blot analysis. Type of data set: functional, cell-based. On the technique in general: A western blot detects proteins with antibodies after separation by electrophoresis.
Data set [1] has as its system MV4-11. Description: Effect on STAT6 level in human MV4-11 cells upto 5 uM measured for 18 hrs by Western blot analysis. Type of data set: functional, cell-based.
Data set [2] is described as follows: Antiproliferative activity against human Kasumi-3 cells assessed as cell growth inhibition measured for 4 days by celltiter-glo assay. The conditions noted are these: Kasumi-3, 96 h. On the technique in general: In ATP-based viability assays light output follows the ATP content of the culture.
The test system of data set [3] is RS4-11. Description: Antiproliferative activity against human RS4-11 cells assessed as cell growth inhibition measured for 4 days by celltiter-glo assay. The conditions noted are these: RS4-11, 96 h.
The next data set relates to OCI-AML2. Description: Antiproliferative activity against human OCI-AML2 cells assessed as cell growth inhibition measured for 4 days by celltiter-glo assay. The following applies: OCI-AML2, 96 h.
The subject of data set [4] is MV4-11. Description: Antiproliferative activity against human MV4-11 cells assessed as maximal cell growth inhibition measured for 4 days by celltiter-glo assay relative to control. The conditions noted are these: time 4 day. Type of data set: functional.
Data set [5] relates to RS4-11. Description: Antiproliferative activity against human RS4-11 cells assessed as maximal cell growth inhibition measured for 4 days by celltiter-glo assay relative to control. The class given is functional. The following applies: time 4 day.
Another data set concerns Mus musculus. Briefly: In vivo induction of degradation of STAT5 in human MV4-11 cells xenografted in SCID mouse assessed as reduction in STAT5 levels at 150 mg/kg, ip measured at 1 hrs by immunoblotting analysis. Type of data set: functional, organism-based.
A short description of data set [6]: In vivo induction of degradation of STAT5 in human MV4-11 cells xenografted in SCID mouse assessed as reduction in STAT5 levels at 150 mg/kg, ip measured at 1 to 24 hrs by immunoblotting analysis. Set-up: scale not given: the % may be the effect or the level left. The following applies: time 1-24 hrs. Type of data set: functional.
Data set [7] can be described thus: In vivo induction of degradation of STAT5 in human MV4-11 cells xenografted in SCID mouse assessed as reduction in STAT5 phosphorylation at Y694 residue at 150 mg/kg, ip measured at 1 to 24 hrs by immunoblotting analysis. The class given is functional. More on the design: scale not given: the % may be the effect or the level left. The conditions noted are these: time 1-24 hrs.

For data set [8], the system named is MV4-11. Description: Antitumor activity against human MV4-11 cells xenografted in SCID mouse assessed as tumor growth inhibition at 100 mg/kg, ip administered 5 days a week for 3 weeks. Type of data set: functional. The following applies: MV4-11, 504 h, read-out: TGI.
The test system of data set [9] is MV4-11. Description: Antitumor activity against human MV4-11 cells xenografted in SCID mouse assessed as tumor growth inhibition at 200 mg/kg, ip administered 5 days a week for 3 weeks. The following applies: MV4-11, 504 h, read-out: TGI. The class given is functional.
Data set [10] can be described thus: Toxicity in SCID mouse assessed as body weight loss at 50 to 200 mg/kg, ip administered 5 days a week for 3 weeks. The following applies: in vivo, 504 h, dose 50-200 mg/kg. The class given is organism-based.
Data set [11] in a line: Toxicity in SCID mouse assessed as effect on sign of illness at 50 to 200 mg/kg, ip administered 5 days a week for 3 weeks. The class given is organism-based. The following applies: in vivo, 120 h, dose 50-200 mg/kg, time 5 day.
Data set [12] has as its target T1, STAT5A/STAT5B (Homo sapiens, UniProt P42229+P51692).
T1 sequence (P42229 whole entry): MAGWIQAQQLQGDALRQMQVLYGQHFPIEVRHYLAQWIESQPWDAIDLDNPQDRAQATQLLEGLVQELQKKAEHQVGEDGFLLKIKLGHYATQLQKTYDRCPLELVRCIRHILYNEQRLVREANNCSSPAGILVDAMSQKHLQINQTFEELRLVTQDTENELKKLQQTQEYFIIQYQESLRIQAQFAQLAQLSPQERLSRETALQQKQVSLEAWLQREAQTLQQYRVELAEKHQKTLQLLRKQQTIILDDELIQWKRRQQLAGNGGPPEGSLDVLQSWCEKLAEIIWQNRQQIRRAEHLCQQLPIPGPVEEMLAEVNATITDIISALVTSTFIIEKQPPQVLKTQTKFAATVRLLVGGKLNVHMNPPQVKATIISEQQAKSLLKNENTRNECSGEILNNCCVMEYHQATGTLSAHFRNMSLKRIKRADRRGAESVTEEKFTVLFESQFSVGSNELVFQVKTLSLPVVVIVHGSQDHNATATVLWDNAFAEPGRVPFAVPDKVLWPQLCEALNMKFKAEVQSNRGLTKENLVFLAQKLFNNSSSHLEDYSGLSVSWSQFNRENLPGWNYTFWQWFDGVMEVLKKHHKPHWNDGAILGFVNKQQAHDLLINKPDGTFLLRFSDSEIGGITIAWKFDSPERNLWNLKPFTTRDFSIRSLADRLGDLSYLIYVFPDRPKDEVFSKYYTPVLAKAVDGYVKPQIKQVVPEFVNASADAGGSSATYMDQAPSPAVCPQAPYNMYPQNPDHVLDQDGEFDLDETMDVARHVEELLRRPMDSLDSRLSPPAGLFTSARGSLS
T1 sequence (P51692 whole entry): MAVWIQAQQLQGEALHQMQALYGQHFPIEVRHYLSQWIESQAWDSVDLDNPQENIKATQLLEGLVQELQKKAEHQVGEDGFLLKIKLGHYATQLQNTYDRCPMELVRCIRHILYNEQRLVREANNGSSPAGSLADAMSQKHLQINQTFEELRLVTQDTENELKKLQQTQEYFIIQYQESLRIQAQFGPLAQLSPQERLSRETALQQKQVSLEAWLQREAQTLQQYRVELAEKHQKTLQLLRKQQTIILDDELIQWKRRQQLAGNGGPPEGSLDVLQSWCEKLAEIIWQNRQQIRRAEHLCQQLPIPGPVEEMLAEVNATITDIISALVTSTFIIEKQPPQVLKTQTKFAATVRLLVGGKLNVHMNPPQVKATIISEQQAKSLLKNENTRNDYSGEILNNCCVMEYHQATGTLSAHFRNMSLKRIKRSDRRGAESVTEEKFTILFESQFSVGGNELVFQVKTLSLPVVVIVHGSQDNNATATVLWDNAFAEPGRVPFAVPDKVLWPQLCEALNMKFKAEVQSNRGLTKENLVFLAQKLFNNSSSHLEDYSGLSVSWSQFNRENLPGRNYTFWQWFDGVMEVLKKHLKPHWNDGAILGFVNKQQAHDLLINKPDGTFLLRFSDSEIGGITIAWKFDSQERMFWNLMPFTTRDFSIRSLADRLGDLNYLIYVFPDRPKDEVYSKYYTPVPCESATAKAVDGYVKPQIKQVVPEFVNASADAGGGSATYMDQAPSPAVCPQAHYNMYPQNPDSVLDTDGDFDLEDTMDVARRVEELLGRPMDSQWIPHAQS
Briefly: Induction of STAT5A/5B degradation in human SKNO-1 cells measured for 18 hrs by immunoblotting analysis. Type of data set: cell-based.

In data set [13] the target is T1, STAT5A/STAT5B. Description: Induction of STAT5A/5B degradation in human Kasumi-3 cells measured for 18 hrs by immunoblotting analysis. Type of data set: cell-based.
For data set [14], the target named is T1, STAT5A/STAT5B. Description: Induction of STAT5A/5B degradation in human OCI-AML2 cells measured for 18 hrs by immunoblotting analysis. Type of data set: cell-based.
Data set [15] addresses T1, STAT5A/STAT5B. Briefly: Induction of STAT5A/5B degradation in human OCI-M2 cells measured for 18 hrs by immunoblotting analysis. The class given is cell-based.

Each structure is given as a SMILES string. Active and inactive are the calls of the source. No cut-off for these calls is given here.

Protein cereblon, sequence (Q96SW2 whole entry): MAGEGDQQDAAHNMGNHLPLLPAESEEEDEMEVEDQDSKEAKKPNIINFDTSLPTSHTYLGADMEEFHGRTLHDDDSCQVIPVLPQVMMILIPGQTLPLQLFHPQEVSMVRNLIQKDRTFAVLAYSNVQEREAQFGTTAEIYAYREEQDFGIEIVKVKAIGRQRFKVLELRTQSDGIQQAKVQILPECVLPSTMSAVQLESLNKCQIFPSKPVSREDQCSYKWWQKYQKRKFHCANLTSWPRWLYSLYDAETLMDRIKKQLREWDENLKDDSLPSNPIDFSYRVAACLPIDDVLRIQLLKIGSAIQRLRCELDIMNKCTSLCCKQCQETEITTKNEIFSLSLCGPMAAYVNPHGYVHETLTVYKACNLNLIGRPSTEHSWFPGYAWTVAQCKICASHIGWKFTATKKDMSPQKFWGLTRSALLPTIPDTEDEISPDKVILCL

As a reminder, the Ki is the dissociation constant of the complex between target and ligand, obtained from inhibition or displacement. Usually IC50 stands for the concentration that gives 50% inhibition. Broadly, the DC50 is the concentration giving 50% degradation. Consider `CN(CCCC#Cc1cccc2c1CN(C1CCC(=O)NC1=O)C2=O)C(=O)CCN(C(=O)[C@@H]1CCCN1C(=O)[C@@H](NC(=O)c1cc2cc(C(F)(F)P(=O)(O)O)ccc2s1)C(C)(C)C)c1ccc(-c2nccs2)cc1` (some centres undefined), for which the Ki at Protein cereblon amounted to 0.17 µM. Also, the outcome in the data set with SKNO-1 and in the data set with MV4-11 [1] was inactive. The IC50 was 0.35 µM in data set [2], more than 15 µM in the data set on RS4-11 [3] and more than 15 µM in the data set on OCI-AML2. For the same compound, the Imax in the data set with MV4-11 [4] is recorded as 65%; in the data set on RS4-11 [5], less than 5%. Also, the outcome with Mus musculus was Active. The Activity in data set [6] was more than 95%; in data set [7], more than 95%; in [10], “Non-Toxic”; in data set [11], “Non-Toxic”. Moreover, in the data set on MV4-11 [8], the inhibition in vivo at 100 mg/kg was determined as 60%. The inhibition in vivo at 200 mg/kg in the data set with MV4-11 [9] amounted to 80%. Besides, the DC50 amounted to 0.08 µM at STAT5A/STAT5B [12], 0.18 µM at STAT5A/STAT5B [13], 0.28 µM on STAT5A/STAT5B [14] and 0.7 µM on STAT5A/STAT5B [15].
